Measured values: US20230243822A1, “MOLECULAR DISEASE PROFILE AND USE THEREOF FOR MONITORING AND TREATING RHEUMATAOID ARTHRITIS” (JANSSEN BIOTECH, INC., priority 2020, published 2023)

Assays:
[1] = tested on: 4-analyte M-DP panel (CRP, SAA, CXCL10, CXCL13); test: Pharmacodynamic 4-analyte M-DP score by MSD U-PLEX, CORRONA CERTAIN biorepository serum; type: in vivo, human; settings: U-PLEX 4-analyte; for M-DP score GMean decrease: all treated
Protocol: PD M-DP scores for the 4-analyte panel were calculated based on these concentrations of CRP, SAA, CXCL10, and CXCL13.
These samples were not previously evaluated for the M-DP panel development or reduction.

RA patients = settings: cited from earlier work
14-analyte M-DP panel = test: Pharmacodynamic M-DP score, 14-analyte panel (SomaLogic SOMAscan), clinical studies in RA; type: in vivo, human; settings: for M-DP score mean difference ± SD, Good vs. No / M-DP score mean ± SD, DAS28-CRP response group Good / M-DP score mean ± SD, DAS28-CRP response group Moderate / M-DP score mean ± SD, DAS28-CRP response group No: response at week 24
Excerpt: (§1) Serum samples and data from eight interventional clinical studies with seven different active treatments for RA or placebo treatment were obtained and analyzed: sirukumab (anti-IL-6) and placebo treatments in SIRROUND-M (NCT01689532; Takeuchi T, et al. Arthritis Res Ther. 2018 Mar. 7; 20(1): 42), SIRROUND-D (NCT01604343; Takeuchi T, et al. Ann Rheum Dis. 2017 Dec.; 76(12): 2001-2008), and SIRROUND-T (NCT01606761; Aletaha D, et al. Lancet. 2017 Mar. 25; 389(10075): 1206-1217); sirukumab and adalimumab (anti-TNF-alpha) treatments in SIRROUND-H (NCT02019472; Taylor PC, et al. Ann Rheum Dis. 2018 May; 77(5): 658-666); golimumab (anti-TNF-alpha) treatment in GO-FURTHER (NCT00973479; Weinblatt ME, et al. Ann Rheum Dis. 2013 March; 72(3): 381-9); guselkumab (anti-IL-23p19), ustekinumab (anti-IL-12/IL-23p40), and placebo treatments in CNTO1275ARA2001 (NCT01645280; Cox JD, et al. […]); JNJ-40346527 (colony-stimulating factor-1 inhibitor) and placebo treatments in 40346527ARA2001 (NCT01597739; Genovese MC, et al. J Rheumatol. 2015 October; 42(10): 1752-60). Plasma samples were obtained from the RA-MAP TACERA study (Cope AP, et al. Nat Rev Rheumatol. 2018 January; 14(1): 53-60) before (baseline) and 6-months after initiation of conventional synthetic disease-modifying anti-rheumatic drugs (csDMARDs). Details of treatment dose groups, concomitant methotrexate use, and previous experience with csDMARDs and biologics are reported in Table 1. The studies were conducted in accordance with the Declaration of Helsinki. The study protocols were reviewed and approved by an independent ethics committee or institutional review board for each study center. Written informed consent was obtained from all patients before study entry. Additional study details and patient characteristics are available in the referenced publications for each study. For SIRROUND-D and SIRROUND-T studies, sets of serum samples from demographically-matched healthy controls were obtained from commercial sources (BioIVT, Westbury, N.Y.).
(§2) Serum samples from baseline (week 0) and the time points indicated in Table 1 were provided for quantification of 1189 serum analytes using the SomaScan v3.1 platform (SomaLogic, Boulder, Colo.; www.somalogic.com), with the exception of RA-MAP TACERA, for which plasma samples were analyzed for 1301 analytes using the SomaScan v3.2 platform. For some studies, a redacted dataset reporting data for a subset of the analytes was obtained. Relative fluorescence unit (RFU) data were sequentially normalized for hybridization controls (internal standards per samples), median signal across all samples (assumes same total protein concentration across sample set), and calibration controls (common sample standards across analysis plates). Samples failed quality control standards defined by Somalogic were excluded from analyses. The normalized RFU values were log2-transformed for subsequent analyses.
(§3) Changes in analyte expression levels were calculated for individual samples as the log2 transform of the ratio of the analyte level at the indicated time point (visit level) over the analyte level at baseline (baseline level) for a given subject, i.e., log 2(visit level/baseline level). Changes in RA disease-associated analytes per sample were summarized using a pharmacodynamic (PD) molecular disease profile (M-DP) score, defined as the median value of the log 2(visit level/baseline level) values for analytes in the defined M-DP analyte set. […] PD M-DP scores in the log 2(visit level/baseline level) scale can be transformed to percent change from baseline, using the transformation: (2^M-DP score−1)×100%.
Statistical analyses were performed on log2-transformed data, for either normalized Relative fluorescence unit (RFU) datasets or within-subject fold/baseline datasets. Significance of differences between groups was evaluated using General Linear Models, with t-tests when comparing two groups. […]

[2] = tested on: 4-analyte M-DP panel (CRP, CXCL10, CXCL13, SAA); test: Pharmacodynamic M-DP score, 4-analyte panel CRP, CXCL10, CXCL13, SAA (SOMAscan), clinical studies in RA; type: in vivo, human; settings: for M-DP score mean ± SD, All treated / M-DP score mean difference ± SD, Good vs. No / M-DP score mean ± SD, DAS28-CRP response group Good / M-DP score mean ± SD, DAS28-CRP response group Moderate / M-DP score mean ± SD, DAS28-CRP response group No: 4-analyte, CNTO1275ARA2001, ustekinumab SC 90 mg or guselkumab SC 50 or 200 mg; for M-DP score mean difference ± SD, Good vs. No / M-DP score mean ± SD, DAS28-CRP response group Good / M-DP score mean ± SD, DAS28-CRP response group Moderate / M-DP score mean ± SD, DAS28-CRP response group No: response at week 24
Excerpt: as §1, §2, §3
In selecting the best minimal set of analytes that performs similarly to the full 14-analyte set, analyte sets that results in significant associations between DAS28-CRP EULAR good vs. no response with p<0.05 for each study were prioritized (Table 4). […]

[3] = CERTAIN Biorepository RA patients
[4] = CNTO1275ARA2001, score at week 4, ustekinumab SC 90 mg or guselkumab SC 50 or 200 mg
[5] = CNTO1275ARA2001, score at week 28, ustekinumab SC 90 mg or guselkumab SC 50 or 200 mg

Substance: rituximab
- M-DP score GMean decrease ([1]; 3-months): 30%
- M-DP score GMean decrease ([1]; 6-months): 36%
- M-DP score mean ± SD, 6-month DAS28-CRP response group Good ([1]; score at month 3M): −0.44 ± 1.13 [7] log2 (fold/baseline)
- M-DP score mean ± SD, 6-month DAS28-CRP response group Moderate ([1]; score at month 3M): −0.71 ± 1.62 [4] log2 (fold/baseline)
- M-DP score mean ± SD, 6-month DAS28-CRP response group No ([1]; score at month 3M): −0.23 n.a. [1] log2 (fold/baseline)
- M-DP score mean ± SD, All treated ([1]; score at month 3M): −0.51 ± 1.20 [12] log2 (fold/baseline)
- M-DP score mean ± SD, 6-month DAS28-CRP response group Good ([1]; score at month 6M): −0.96 ± 0.79 [7]* log2 (fold/baseline)
- M-DP score mean ± SD, 6-month DAS28-CRP response group Moderate ([1]; score at month 6M): −0.24 ± 1.23 [4] log2 (fold/baseline)
- M-DP score mean ± SD, 6-month DAS28-CRP response group No ([1]; score at month 6M): −0.01 n.a. [1] log2 (fold/baseline)
- M-DP score mean ± SD, All treated ([1]; score at month 6M): −0.64 ± 0.95 [12] * log2 (fold/baseline)
- EULAR DAS28-CRP clinical response rate, good response (RA patients; [3]): 50%
- EULAR DAS28-CRP clinical response rate, moderate response (RA patients; [3]): 32%
- EULAR DAS28-CRP clinical response rate, no response (RA patients; [3]): 18%

Substance: ustekinumab [reference compound]
- M-DP score mean ± SD, All treated (14-analyte M-DP panel; [4]): −0.08 ± 0.34 log2 (fold/baseline)
- M-DP score mean difference ± SD, Good vs. No (14-analyte M-DP panel; [4]): −0.32 ± 0.32 log2 (fold/baseline)
- M-DP score mean ± SD, DAS28-CRP response group Good (14-analyte M-DP panel; [4]): −0.24 ± 0.34 log2 (fold/baseline)
- M-DP score mean ± SD, DAS28-CRP response group Moderate (14-analyte M-DP panel; [4]): −0.04 ± 0.29 log2 (fold/baseline)
- M-DP score mean ± SD, DAS28-CRP response group No (14-analyte M-DP panel; [4]): 0.08 ± 0.31 [31] log2 (fold/baseline)
- M-DP score mean ± SD, All treated (14-analyte M-DP panel; [5]): −0.09 ± 0.43 log2 (fold/baseline)
- M-DP score mean difference ± SD, Good vs. No (14-analyte M-DP panel; [5]): −0.49 ± 0.41 log2 (fold/baseline)
- M-DP score mean ± SD, DAS28-CRP response group Good (14-analyte M-DP panel; [5]): −0.34 ± 0.33 log2 (fold/baseline)
- M-DP score mean ± SD, DAS28-CRP response group Moderate (14-analyte M-DP panel; [5]): −0.05 ± 0.23 log2 (fold/baseline)
- M-DP score mean ± SD, DAS28-CRP response group No (14-analyte M-DP panel; [5]): −0.15 ± 0.49 [13] log2 (fold/baseline)
- GMean M-DP scores, change (14-analyte M-DP panel; week 4 or latest time point evaluated (weeks 28, 28, and 12, respectively)): not decreased
- M-DP score mean ± SD, All treated ([2]; score at week 4): −0.05 ± 0.77 log2 (fold/baseline)
- M-DP score mean difference ± SD, Good vs. No ([2]; score at week 4): −0.81 ± 0.83 (0.0469) log2 (fold/baseline)
- M-DP score mean ± SD, DAS28-CRP response group Good ([2]; score at week 4): −0.49 ± 0.27 log2 (fold/baseline)
- M-DP score mean ± SD, DAS28-CRP response group Moderate ([2]; score at week 4): 0.06 ± 0.41 log2 (fold/baseline)
- M-DP score mean ± SD, DAS28-CRP response group No ([2]; score at week 4): 0.33 ± 0.98 log2 (fold/baseline)
- M-DP score mean ± SD, All treated ([2]; score at week 28): 0.04 ± 0.84 log2 (fold/baseline)
- M-DP score mean difference ± SD, Good vs. No ([2]; score at week 28): −0.94 ± 0.82 (0.0323) log2 (fold/baseline)
- M-DP score mean ± SD, DAS28-CRP response group Good ([2]; score at week 28): −0.53 ± 0.68 log2 (fold/baseline)
- M-DP score mean ± SD, DAS28-CRP response group Moderate ([2]; score at week 28): −0.04 ± 0.53 log2 (fold/baseline)
- M-DP score mean ± SD, DAS28-CRP response group No ([2]; score at week 28): 0.41 ± 0.94 log2 (fold/baseline)
- M-DP score effect size (decrease), EULAR DAS28-CRP good responders ([2]; week 4 M-DP scores): > 1.0 standard deviation
- clinical efficacy in the underlying clinical studies (RA patients; RA patients): not clinically efficacious
